Source: patent publication US4308259A, “Penicillin derivatives” (Beecham Group Limited, priority 1979, dated 1981)
Structures can show the parent of a compound that is named as a salt. Where two headings read alike, the source gives them in different places.

Columns and labels:
Format in all cases: cell-based
K. aerogenes A = assay: MIC against K. aerogenes A; details: Klebsiella aerogenes
S. aureus Russell = assay: MIC against S. aureus Russell; details: Staphylococcus aureus
S. marcescens US 32 = assay: MIC against S. marcescens US 32; details: Serratia marcescens, US32
P. mirabilis 889 = assay: MIC against P. mirabilis 889; details: Proteus mirabilis
S. faecalis I = assay: MIC against S. faecalis I; details: Enterococcus faecalis
E. coli JT 425 = assay: MIC against E. coli JT 425; details: Escherichia coli, JT425
[1] = tested on: Ps. aeruginosa NCTC 10662; assay: MIC against Ps. aeruginosa NCTC 10662
N. catarrhalis 1502 = assay: MIC against N. catarrhalis 1502
E. coli NCTC 10418 = assay: MIC against E. coli NCTC 10418; details: Escherichia coli, NCTC10418
P. morganii = assay: MIC against P. morganii; details: Morganella morganii
S. pyogenes CN 10 = assay: MIC against S. pyogenes CN 10; details: Streptococcus pyogenes, CN10
E. cloacae N1 = assay: MIC against E. cloacae N1; details: Enterobacter cloacae
P. mirabilis C 977 = assay: MIC against P. mirabilis C 977; details: Proteus mirabilis, C977
B. subtilis = assay: MIC against B. subtilis; details: Bacillus subtilis
E. coli JT 4 = assay: MIC (antibacterial activity) against E. coli JT 4; details: Escherichia coli, JT4
P. rettgeri = assay: MIC against P. rettgeri; details: Providencia rettgeri
S. aureus Oxford = assay: MIC against S. aureus Oxford; details: Staphylococcus aureus
Ps. aeruginosa Dalgleish = assay: MIC against Ps. aeruginosa Dalgleish; details: Pseudomonas aeruginosa; Ps. aeruginosa Dalgleish 10^-2
[2] = Pseudomonas aeruginosa, NCTC10662, Ps. aeruginosa NCTC 10662 10^-2, read-out: MIC
[3] = Pseudomonas aeruginosa, NCTC10662, Ps. aeruginosa NCTC 10662, read-out: MIC

| Structure (SMILES) | MIC (K. aerogenes A) [µg/mL] | MIC (S. aureus Russell) [µg/mL] | MIC (S. marcescens US 32) [µg/mL] | MIC (P. mirabilis 889) [µg/mL] | MIC (S. faecalis I) [µg/mL] | MIC (E. coli JT 425; E. coli JT 425, read-out: MIC) [µg/mL] | MIC [1, 2] [µg/mL] | MIC [1, 3] [µg/mL] | MIC (N. catarrhalis 1502) [µg/mL] | MIC (E. coli NCTC 10418) [µg/mL] | MIC (P. morganii) [µg/mL] | MIC (S. pyogenes CN 10) [µg/mL] | MIC (E. cloacae N1) [µg/mL] | MIC (P. mirabilis C 977) [µg/mL] | MIC (B. subtilis) [µg/mL] | MIC (E. coli JT 4) [µg/mL] | MIC (P. rettgeri; P. rettgeri, read-out: MIC) [µg/mL] | MIC (S. aureus Oxford) [µg/mL] | MIC (Ps. aeruginosa Dalgleish) [µg/mL] | other results |
| --- | --- | --- | --- | --- | --- | --- | --- | --- | --- | --- | --- | --- | --- | --- | --- | --- | --- | --- | --- | --- |
| CO[C@@]1(NC(=O)C(c2ccc(N)cc2)S(=O)(=O)O)C(=O)N2[C@@H](C(=O)O)C(C)(C)S[C@@H]21 (stereo partly drawn) [Example 4, Disodium 6,β-[2-(4-aminophenyl)-2-sulphoacetamido]-6,α-methoxy-penicillanate] | 2.5 | > 100 | 25 | 10 | > 100 | 10 | 25 | 25 | 0.05 | 10 | 5 | 25 | 5 | 5 | > 100 | 10 | 6 | > 100 | 25 |  |
| CO[C@@]1(NC(=O)C(c2ccccc2)P(=O)(O)OC)C(=O)N2[C@@H](C(=O)O)C(C)(C)S[C@@H]21 (stereo partly drawn) [Example 6, 6,α-Methoxy-6,β-(2-O-methylphosphono-2-phenylacetamido)penicillanic acid disodium salt] | 12.5 | > 500 | 125 | 50 | > 500 |  |  | 500 | 0.5 | 50 | 50 | > 500 | 12.5 | 25 | > 500 | 125 |  | > 500 | 250 | MIC (E. coli JT 425): 50 µg/mL; MIC ([1]; Ps. aeruginosa NCTC 10662 10^-2): 500 µg/mL; MIC (P. rettgeri): 12.5 µg/mL |
| CO[C@@]1(NC(=O)C(c2ccccc2F)S(=O)(=O)O)C(=O)N2[C@@H](C(=O)O)C(C)(C)S[C@@H]21 (stereo partly drawn) [Example 9, Disodium 6,β-[2-(2-fluorophenyl)-2-sulphoacetamido]-6,α-methoxypenicillanate] | 2.5 | 50 | 50 | 5 | > 100 | 10 | 100 | > 100 | < 0.02 | 10 | 5 | 5 | 2.5 | 5 | 25 | 25 | 5 | 25 | 100 |  |

Continued, in another order:

| MIC (K. aerogenes A) [µg/mL] | MIC (S. aureus Russell) [µg/mL] | MIC (S. marcescens US 32) [µg/mL] | MIC (P. mirabilis 889) [µg/mL] | MIC (S. faecalis I) [µg/mL] | MIC (E. coli JT 425; E. coli JT 425, read-out: MIC) [µg/mL] | MIC [1, 2] [µg/mL] | MIC [1, 3] [µg/mL] | MIC (N. catarrhalis 1502) [µg/mL] | MIC (E. coli NCTC 10418) [µg/mL] | MIC (P. morganii) [µg/mL] | MIC (S. pyogenes CN 10) [µg/mL] | MIC (E. cloacae N1) [µg/mL] | MIC (P. mirabilis C 977) [µg/mL] | MIC (B. subtilis) [µg/mL] | MIC (E. coli JT 4) [µg/mL] | MIC (P. rettgeri; P. rettgeri, read-out: MIC) [µg/mL] | MIC (S. aureus Oxford) [µg/mL] | MIC (Ps. aeruginosa Dalgleish) [µg/mL] | Structure (SMILES) | other results |
| --- | --- | --- | --- | --- | --- | --- | --- | --- | --- | --- | --- | --- | --- | --- | --- | --- | --- | --- | --- | --- |
| 2.5 | > 100 | > 100 | 5 | > 100 | 10 | > 100 | > 100 |  | 25 | 10 | 50 | 25 | 5 | > 100 | 25 | 10 | > 100 | 50 | CO[C@@]1(NC(=O)C(c2ccccc2)S(=O)(=O)O)C(=O)N2[C@@H](C(=O)O)C(C)(C)S[C@@H]21 (stereo partly drawn) [Example 1, Disodium 6,α-methoxy-6,β -(2-phenyl-2-sulphoacetamido) penicillanate] |  |
| 10 | > 100 | 100 | 25 | > 100 | 25 | 50 | 50 | 0.2 | 25 | 25 | 25 | 10 | 25 | > 100 | 25 | 10 | > 100 | 25 | CO[C@@]1(NC(=O)C(c2ccc(O)cc2)S(=O)(=O)O)C(=O)N2[C@@H](C(=O)O)C(C)(C)S[C@@H]21 (stereo partly drawn) [Example 8, Disodium 6,β-[2-(4-hydroxyphenyl)-2-sulphoacetamido]-6,α-methoxypenicillanate] |  |
